Drawing on ChEMBL document CHEMBL1136132, “Effect of structural modification on the inhibitory selectivity of rutaecarpine derivatives on human CYP1A1, CYP1A2, and CYP1B1” (Bioorg Med Chem Lett, 2003), this text covers IC50 and ratio for 17 compounds.

pIC50: −log10 of the molar value. A value given as a limit tells only on which side of the number the result lay.

The target of assay [1] is T1, Cytochrome P450 1A2 (Homo sapiens, UniProt P05177).
T1 sequence (P05177 whole entry): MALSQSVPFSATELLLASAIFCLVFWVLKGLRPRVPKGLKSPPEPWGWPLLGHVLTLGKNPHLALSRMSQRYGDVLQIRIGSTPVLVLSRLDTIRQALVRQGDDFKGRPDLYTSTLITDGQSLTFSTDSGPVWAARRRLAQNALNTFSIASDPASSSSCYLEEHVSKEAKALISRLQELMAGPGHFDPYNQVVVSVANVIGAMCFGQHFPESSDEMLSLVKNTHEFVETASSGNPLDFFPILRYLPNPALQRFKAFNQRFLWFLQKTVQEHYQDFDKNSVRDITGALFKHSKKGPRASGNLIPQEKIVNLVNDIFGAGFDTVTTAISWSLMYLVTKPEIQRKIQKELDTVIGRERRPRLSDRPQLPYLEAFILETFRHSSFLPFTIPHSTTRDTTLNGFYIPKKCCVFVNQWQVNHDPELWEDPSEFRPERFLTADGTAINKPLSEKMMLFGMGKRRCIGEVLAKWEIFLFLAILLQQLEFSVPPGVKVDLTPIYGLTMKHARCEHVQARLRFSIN
Nature of the assay: Inhibition of Cytochrome P450 1A2 enzyme in bacterial membrane expressing human P450s. Format: ADME, cell membranes.

Assay [2] deals with T2, Cytochrome P450 1B1 (Homo sapiens, UniProt Q16678).
T2 sequence (Q16678 whole entry): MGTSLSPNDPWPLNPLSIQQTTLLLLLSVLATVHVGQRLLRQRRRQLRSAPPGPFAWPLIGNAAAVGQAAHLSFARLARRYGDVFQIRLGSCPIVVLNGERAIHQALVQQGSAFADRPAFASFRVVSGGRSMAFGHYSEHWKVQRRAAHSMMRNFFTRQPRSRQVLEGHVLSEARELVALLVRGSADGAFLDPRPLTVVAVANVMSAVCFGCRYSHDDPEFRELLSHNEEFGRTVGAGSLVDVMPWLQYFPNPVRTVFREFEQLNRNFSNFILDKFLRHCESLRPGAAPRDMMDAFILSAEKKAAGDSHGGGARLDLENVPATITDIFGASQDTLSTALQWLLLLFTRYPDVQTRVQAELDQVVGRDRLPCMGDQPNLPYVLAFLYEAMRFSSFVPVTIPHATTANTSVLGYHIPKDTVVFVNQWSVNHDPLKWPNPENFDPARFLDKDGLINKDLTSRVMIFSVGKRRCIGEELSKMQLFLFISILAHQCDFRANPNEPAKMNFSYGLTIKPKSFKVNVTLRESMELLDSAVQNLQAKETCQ
Briefly: Inhibition of Cytochrome P450 1B1 enzyme in bacterial membrane expressing human P450s. Format: ADME, cell membranes.

Assay [3] deals with T3, Cytochrome P450 1A1 (Homo sapiens, UniProt P04798).
T3 sequence (P04798 whole entry): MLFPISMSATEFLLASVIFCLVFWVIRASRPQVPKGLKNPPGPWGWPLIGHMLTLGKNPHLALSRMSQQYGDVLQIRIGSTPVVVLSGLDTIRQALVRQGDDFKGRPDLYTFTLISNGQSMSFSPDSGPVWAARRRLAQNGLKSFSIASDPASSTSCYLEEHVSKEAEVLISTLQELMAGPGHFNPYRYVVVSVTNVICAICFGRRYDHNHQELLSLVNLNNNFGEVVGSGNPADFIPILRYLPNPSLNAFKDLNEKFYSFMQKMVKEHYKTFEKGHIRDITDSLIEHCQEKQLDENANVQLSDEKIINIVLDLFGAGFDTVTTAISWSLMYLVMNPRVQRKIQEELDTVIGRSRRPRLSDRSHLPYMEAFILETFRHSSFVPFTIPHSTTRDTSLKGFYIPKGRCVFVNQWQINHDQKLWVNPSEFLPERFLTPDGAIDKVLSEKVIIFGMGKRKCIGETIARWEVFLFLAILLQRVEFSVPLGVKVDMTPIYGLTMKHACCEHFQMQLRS
Nature of the assay: Inhibition of Cytochrome P450 1A1 enzyme in bacterial membrane expressing human P450s. Format: ADME, cell membranes.

A short description of assay [4]: Ratio for inhibition of Cytochrome P450 1B1 to that of Cytochrome P450 1A2. Format: ADME.
Assay [5] can be described thus: Ratio for inhibition of Cytochrome P450 1A1 to that of Cytochrome P450 1A2. Format: ADME.
In assay [6] the target is T2, Cytochrome P450 1B1. Nature of the assay: Inhibition of human Cytochrome P450 1B1 expressed in bacterial membrane. Format: ADME, cell membranes.

For `CN1c2ccccc2C(=O)N2CCc3c([nH]c4ccccc34)[C@H]21` [EVODIAMINE], the pIC50 (in general, −log10 of the IC50, conventionally taken in molar units) in assay [1] was 4.79; in assay [2], 6.16; in assay [3], 4.61.

For `COc1ccc2nc3n(c(=O)c2c1)CCc1c-3[nH]c2ccccc12`, the ratio in assay [4] was 0.5; in assay [5], 5. Further, the pIC50 in assay [1] is 6.55; in assay [2], 6.85; in assay [3], 5.89.

Take `O=c1c2ccc(Cl)cc2nc2n1CCc1c-2[nH]c2ccccc12`: the ratio worked out at 1 in assay [4] and 30 in assay [5]. Besides, the pIC50 is 7.41 in assay [1], 7.43 in assay [2] and 5.92 in assay [3].

On to `COc1cc2nc3n(c(=O)c2cc1OC)CCc1c-3[nH]c2ccccc12`, for which the ratio in assay [4] was under 0.0003; in assay [5] it was under 0.003. For the same compound, the pIC50 was under 3.30 in assay [1], 6.80 in assay [2] and 5.80 in assay [3].

Regarding `O=c1c2cc(Cl)ccc2nc2n1CCc1c-2[nH]c2ccccc12`, the figures for the ratio in assay [4] and in assay [5] were 3 and 64, respectively. Besides, the pIC50 in assay [1] is 7.54; in assay [2], 7.05; in assay [3], 5.72.

Take `CN1c2ccccc2C(=O)N2CCc3c([nH]c4ccccc34)[C@@H]21` [EVODIAMINE]: the results for the ratio in assay [4] and in assay [5] were 0.04 and 2, respectively.

Take `COc1ccc2c(=O)n3c(nc2c1OC)-c1[nH]c2ccccc2c1CC3`: the figures for the ratio in assay [4] and in assay [5] were 8 and 33, respectively. In addition, the pIC50 in assay [1] is 7.54; in assay [2] it was 5.62; in assay [3] it was 6.01.

For `COc1cccc2c(=O)n3c(nc12)-c1[nH]c2ccccc2c1CC3`, the ratio in assay [4] came to 7; in assay [5] it was 45. For the same compound, the results for the negative-log IC50 (pIC50) in assay [1], in assay [2] and in assay [3] were 7.96, 7.15 and 6.35, respectively.

For `O=c1c2ccccc2nc2n1CCc1c-2[nH]c2ccccc12` [RUTAECARPINE], the ratio came out at 3 in assay [4] and 13 in assay [5]. Further, the negative logarithm of the IC50 (pIC50) in assay [1] is 7.66; in assay [2] it was 7.26; in assay [3], 6.59.

Take `COc1cc(OC)c2nc3n(c(=O)c2c1)CCc1c-3[nH]c2ccccc12`: the ratio was 2 in assay [4] and 11 in assay [5]. Also, the pIC50 is 7.39 in assay [1], 7.10 in assay [2] and 6.38 in assay [3].

For the compound `COc1ccc2c3c([nH]c2c1)-c1nc2ccccc2c(=O)n1CC3`, the results for the ratio in assay [4] and in assay [5] were 0.06 and 1, respectively. Further, the pIC50 is 5.70 in assay [1], 6.96 in assay [2] and 5.70 in assay [3].

For the compound `COc1ccc2[nH]c3c(c2c1)CCn1c-3nc2ccccc2c1=O`, the ratio worked out at 0.03 in assay [4] and 0.6 in assay [5]. Also, the pIC50 is 5.53 in assay [1], 7.08 in assay [6] and 5.75 in assay [3].

Turning to `O=c1c2cc(Br)ccc2nc2n1CCc1c-2[nH]c2ccccc12`, the ratio amounted to 0.8 in assay [4] and 16 in assay [5]. Also, the values for the pIC50 in assay [1], in assay [2] and in assay [3] were 5.82, 6.92 and 5.61, respectively.

As to `COc1ccc2c(=O)n3c(nc2c1)-c1[nH]c2ccccc2c1CC3`, the ratio in assay [4] was 2; in assay [5], 11. Besides, the results for the pIC50 in assay [1], in assay [2] and in assay [3] were 7.12, 6.77 and 6.07, respectively.

As to `COc1ccc2nc3n(c(=O)c2c1OC)CCc1c-3[nH]c2ccccc12`, the values for the ratio in assay [4] and in assay [5] were 0.08 and 0.5, respectively. In addition, the pIC50 in assay [1] was 5.76; in assay [2], 6.85; in assay [3] it was 6.06.

In the case of `Oc1c2ccccc2nc2c3nc4ccccc4c-3ccn12`, in assay [1], the pIC50 was 7.52.

For the compound `C[n+]1c2n(c(=O)c3ccccc31)CCc1c-2[nH]c2ccccc12` [DEHYDROEVODIAMINE], the ratio was 0.06 in assay [4] and 3 in assay [5]. Also, the results for the negative logarithm of the IC50 (pIC50) in assay [1], in assay [2] and in assay [3] were 5.25, 6.48 and 4.74, respectively.
